Test results published in US8278309B2, “Synthetic mimetics of host defense and uses thereof” (priority 2008, dated 2012).
“Also recorded” adds a separate entry of the source. Counter-ions that a name gives are not always drawn. Like-named read-outs stand apart in the source and are kept apart here.

Tests used:
[1] = system: S. aureus and coagulase-negative staphylococci; assay: MICs with Staphylococcus species with defined resistance phenotypes; type: cell-based; details: for MIC range: in µg/mL
Method: Evaluation of the susceptibility profiles of Compound A against selected isolates was carried out in vitro by broth microdilution methodology using Mueller-Hinton broth medium according to CLSI document M7-A7. CLSI interpretive breakpoints were applied where applicable as directed by CLSI document M100-S17.

S. aureus = assay: MIC or MIC90 vs S. aureus (selectivity table); type: cell-based; details: Staphylococcus aureus; * marks MIC90
MSSA ATCC 29213 = assay: Serial passage resistance, MSSA; type: cell-based, S. aureus; details: 0.5×MIC, 17 passages
Method: Frozen bacterial stocks (20 μL) of S. aureus ATCC29213 or methicillin-resistant S. aureus (MRSA ATCC 33591) were inoculated into 3 mL cation-adjusted Mueller-Hinton medium and incubated at 37° C. on a shaker platform (250 rpm) overnight. The suspension was diluted to approximately 5×10^5 cfu/mL and inoculated into a polypropylene (Costar) 96-well round bottom plate (90 μL volumes). Compound stock solutions of Compound A and norfloxacin (Sigma Aldrich, St. Louis, Mo.; Catalogue# N9890) were prepared in DMSO and serial two-fold dilutions of compound were made in 0.01% acetic acid, 0.2% bovine serum albumin directly in the wells of the polypropylene plate at 10 μL/well. Final concentrations of Compound A were 50, 25, 12.5, 6.25, 3.13, 1.56, 0.78, 0.39, 0.19, 0.098, 0.049, and 0.024 μg/mL. Final concentration ranges of norfloxacin were 100, 50, 25, 12.5, 6.25, 3.13, 1.56, 0.78, 0.39, 0.19, 0.098, and 0.049 μg/mL. […] All samples were performed in triplicate. Following a 24 hour incubation at 37° C., cell growth was assessed by observing the presence of “acceptable growth”, defined by CLSI as a ≧2 mm button or definite turbidity. The MIC wells were defined as the lowest concentration where acceptable growth was not observed. For serial passage, 50 μL aliquots were taken from 2 of 3 replicate wells at 0.5×MIC and combined into 900 μL of fresh cation-adjusted Mueller-Hinton medium. The OD600 was measured and the cell suspensions were inoculated into polypropylene 96-well round bottom plates (90 μL volumes) at approximately 5×10^5 cfu/mL. Ten μL of compound stock solutions were added previously to the wells to achieve the concentration ranges for each compound described above. All samples were performed in triplicate. The plates were incubated for 24 hours at 37° C. This process was repeated for a total of 17 passages and MIC values were recorded at each passage.

[2] = Cytotoxicity colorimetric assay, HepG2; type: cell-based, human; details: human, HepG2 cells; one hour in serum-free media
Method: (§3) This assay measures the bioreduction of a novel tetrazolium compound to a soluble formazan product by viable cells. HepG2 cells were seeded in 96 well plates at 2×10^4 cells/well in MEM medium with 10% fetal bovine serum (FBS) 24 hours prior to use. NIH/3T3 cells were seeded in 96 well plates at 2×10^4 cells/well in DMEM medium with 10% bovine calf serum (BCS) 24 hours prior to use. […] After incubation, the media was replaced with serum supplemented media and live cells were measured using the Cell Titer 96 Aqueous Non-Proliferation Assay kit (Promega, Madison, Wis.). EC50 values were determined using a four parameter logistic equation: Y=Bottom+(Top-Bottom)/(1+10^((LogEC50−X)*HillSlope)).

HepG2 = assay: Cytotoxicity colorimetric assay, HepG2; type: cell-based, human; details: vs S. aureus MIC
Method: as §3

MSSA 29213 = assay: Mouse thigh burden model against MSSA 29213; type: in vivo
[3] = Saturation solubility in excipients; type: physicochemical; details: for solubility: thermodynamic from solid
S. aureus ATCC27660 = assay: Time-kill study; type: cell-based
Method: Time-kill studies of Compound A versus E. coli ATCC25922, E. coli (lab strain) D31, and S. aureus ATCC27660 were determined in a standard protocol by measuring the time it takes to reduce the initial inoculums 3 log units. Three ml of cation-adjusted Mueller-Hinton medium was inoculated with 20 μL of frozen bacterial stock and incubated at 37° C. on a shaker platform (250 rpm) overnight. […] Compound A stock solution was prepared at 10 mg/mL in DMSO. Time points were collected and viable bacteria were counted on MH Agar plates after an 18 hour incubation. […] See, FIG. 1A and FIG. 1B.

Klebsiella oxytoca = assay: MIC broth microdilution, Gram-negative clinical isolates; type: cell-based; details: 2-3 isolates/organism, read-out: MIC
Method: (§1) Compound A was evaluated in vitro in accordance with defined CLSI documents specific to the organisms (aerobic, anaerobic or yeast) tested in this study. Ampicillin, ceftazidime, cefuroxime, ciprofloxacin, linezolid, and vancomycin were tested alongside as comparator agents for aerobic bacteria; clindamycin and metronidazole were tested as comparators for anaerobes; fluconazole was tested as a comparator for yeast isolates. Stock solutions of Compound A were prepared in dimethyl sulfoxide (DMSO). Ampicillin, ceftazidime, cefuroxime, ciprofloxacin, linezolid, vancomycin, metronidazole, clindamycin, and fluconazole were prepared each according to its manufacturer's guideline.
(§2) Minimum inhibitory concentrations (MICs) in μg/ml were determined according to CLSI guideline M7-A7 by broth microdilution. All aerobes were tested using Mueller-Hinton broth medium with the exception of Streptococcus spp., which were tested using cation-adjusted Mueller-Hinton broth supplemented with 2-5% lysed horse blood.

Enterobacter cloacae = assay: as above; type: cell-based; details: 2-3 isolates/organism, read-out: MIC
Method: as §1, §2

Acinetobacter spp. = assay: as above; type: cell-based; details: 2-3 isolates/organism
Method: as §1, §2

Haemophilus influenzae = assay: as above; type: cell-based; details: 2-3 isolates/organism, read-out: MIC
Method: as §1, §2

Citrobacter koseri = assay: as above; type: cell-based; details: 2-3 isolates/organism, read-out: MIC
Method: as §1, §2

Escherichia coli = assay: as above; type: cell-based; details: 2-3 isolates/organism, read-out: MIC
Method: as §1, §2

Providencia stuartii = assay: as above; type: cell-based; details: 2-3 isolates/organism, read-out: MIC
Method: as §1, §2

Klebsiella pneumoniae = assay: as above; type: cell-based; details: 2-3 isolates/organism, read-out: MIC
Method: as §1, §2

Citrobacter freundi = assay: as above; type: cell-based; details: Citrobacter freundi; 2-3 isolates/organism; read-out: MIC
Method: as §1, §2

N=C(N)NCCCCC(=O)Nc1cc(C(F)(F)F)cc(NC(=O)c2cc(C(=O)Nc3cc(C(F)(F)F)cc(NC(=O)CCCCNC(=N)N)c3O[C@H]3CCNC3)ncn2)c1O[C@H]1CCNC1 [Compound A, pyrimidine-4,6-dicarboxylic acid bis-{[3-(5-guanidino-pentanoylamino)-2-((R)-pyrrolidin-3-yloxy)-5-trifluoromethyl-phenyl]-amide}tetrahydrochloride]
MIC range ([1]; DAP-NS OXA-R, 5 isolates): 0.5-2
MIC range ([1]; Drug-suscept., 59 isolates): 0.25-1
MIC range ([1]; LZD-NS OXA-R, 5 isolates): 0.5-1
MIC range ([1]; OXA-R, 69 isolates): 0.25-2
MIC90 ([1]; Staphylococcus aureus, screen of 150 Staphylococci organisms): 0.5 to 2 µg/mL
MIC range ([1]; VRSA/VISA DAP-NS OXA-R, 3 isolates): 0.5-1
MIC range ([1]; VRSA/VISA OXA-R, 7 isolates): 0.5-1
MIC90 (S. aureus): 1 µg/mL
change in MIC values on serial passage (MSSA ATCC 29213): did not result in any change; also recorded: no change
EC50 at 1 h [2]: 1030 µg/mL
Selectivity (EC50/MIC) HepG2 (HepG2): 1,031
efficacy in vivo (MSSA 29213): efficacious
behaviour of formulation at saturation ([3]; 0.9% and 1.2% sodium chloride solution): formed a viscous yellow gel
solubility ([3]; 15% w/v glycerin in purified water, 25 °C, aqueous with cosolvent or surfactant or cyclodextrin, 15% w/v glycerin in purified water, read-out: saturation solubility at 25° C. (free base)): 63.5 mg/mL
solubility ([3]; 15% w/v propylene glycol in purified water, 25 °C, aqueous with cosolvent or surfactant or cyclodextrin, 15% w/v propylene glycol in purified water, read-out: saturation solubility at 25° C. (free base)): 64.9 mg/mL
solubility ([3]; 20% w/v Kleptose in purified water, 25 °C, aqueous with cosolvent or surfactant or cyclodextrin, 20% w/v Kleptose in purified water, read-out: saturation solubility at 25° C. (free base)): 79.7 mg/mL
behaviour of formulation at saturation ([3]; 20-50% w/v propylene glycol in saline): formation of a viscous yellow gel
solubility ([3]; 25% w/v Captisol in purified water, 25 °C, aqueous with cosolvent or surfactant or cyclodextrin, 25% w/v Captisol in purified water, read-out: saturation solubility at 25° C. (free base)): 64.3 mg/mL
solubility ([3]; 30% w/v glycerin in purified water, 25 °C, aqueous with cosolvent or surfactant or cyclodextrin, 30% w/v glycerin in purified water, read-out: saturation solubility at 25° C. (free base)): 63.1 mg/mL
solubility ([3]; 30% w/v propylene glycol and 5 w/v ethanol in purified water, 25 °C, aqueous with cosolvent or surfactant or cyclodextrin, 30% w/v propylene glycol and 5 w/v ethanol in purified water, read-out: saturation solubility at 25° C. (free base)): 43.9 mg/mL
solubility ([3]; 30% w/v propylene glycol in purified water, 25 °C, aqueous with cosolvent or surfactant or cyclodextrin, 30% w/v propylene glycol in purified water, gelled during centrifugation but liquefied on standing, read-out: saturation solubility at 25° C. (free base)): 59.1 mg/mL
solubility ([3]; 40% w/v Kleptose in purified water, 25 °C, aqueous with cosolvent or surfactant or cyclodextrin, 40% w/v Kleptose in purified water, read-out: saturation solubility at 25° C. (free base)): 102 mg/mL
solubility ([3]; 50% w/v glycerin in purified water, 25 °C, aqueous with cosolvent or surfactant or cyclodextrin, 50% w/v glycerin in purified water, read-out: saturation solubility at 25° C. (free base)): 56.8 mg/mL
solubility ([3]; 50% w/v propylene glycol in purified water, 25 °C, aqueous with cosolvent or surfactant or cyclodextrin, 50% w/v propylene glycol in purified water, read-out: saturation solubility at 25° C. (free base)): 74.7 mg/mL
saturation solubility at 25° C. (free base) ([3]; Citric Acid/Sodium Citrate (pH 5)): 11.2 mg/mL
solubility ([3]; DMA, 25 °C, organic solvent or mixture, DMA, read-out: saturation solubility at 25° C. (free base)): 0.6 mg/mL
solubility ([3]; PEG 400, 25 °C, organic solvent or mixture, PEG 400, read-out: saturation solubility at 25° C. (free base)): 18.5 mg/mL
solubility ([3]; Tris(hydroxymethyl)aminomethane buffer, 25 °C, pH 7.4, aqueous buffer, pH 7.4, read-out: solubility): 61.4 mg/mL
solubility ([3]; benzyl alcohol, 25 °C, organic solvent or mixture, Benzyl alcohol, read-out: saturation solubility at 25° C. (free base)): 1.83 mg/mL
solubility ([3]; citric acid/sodium citrate buffer, 25 °C, pH 3, aqueous buffer, Citric Acid/Sodium Citrate (pH 3), read-out: saturation solubility at 25° C. (free base)): 65.5 mg/mL
solubility ([3]; citric acid/sodium citrate buffer, 25 °C, pH 5, aqueous buffer, Citric Acid/Sodium Citrate (pH 5), read-out: saturation solubility at 25° C. (free base)): 12.1 mg/mL
solubility ([3]; ethanol, 25 °C, organic solvent or mixture, Ethanol, read-out: saturation solubility at 25° C. (free base)): 1.13 mg/mL
solubility ([3]; glycerin, 25 °C, organic solvent or mixture, Glycerin, read-out: saturation solubility at 25° C. (free base)): 53 mg/mL
solubility ([3]; propylene glycol, 25 °C, organic solvent or mixture, Propylene Glycol, read-out: saturation solubility at 25° C. (free base)): 90 mg/mL
solubility ([3]; purified water, 25 °C, water, Purified Water, read-out: saturation solubility at 25° C. (free base)): 65 mg/mL
solubility ([3]; tris(hydroxymethyl)aminomethane HCl buffer, 25 °C, pH 7, aqueous buffer, Tris(hydroxymethyl)amino methane HCl (pH 7.0), read-out: saturation solubility at 25° C. (free base)): 61.4 mg/mL
time to reduction of 3 log10 units in the initial inoculum (S. aureus ATCC27660; 2×MIC): 5 hours
MIC (S. aureus ATCC27660; Staphylococcus aureus, ATCC27660, MIC used in time-kill study): 1 µg/mL
re-growth in the cultures (S. aureus ATCC27660; over 72 hours at 1×MIC): No re-growth
MIC (Klebsiella oxytoca): 2 to 8 µg/mL
MIC (Enterobacter cloacae): 0.5 to 4 µg/mL
MIC (Acinetobacter spp.): 4 µg/mL
MIC (Haemophilus influenzae): 4 to 8 µg/mL
MIC (Citrobacter koseri): 1 to 2 µg/mL
MIC (Escherichia coli): 1 to 2 µg/mL
MIC (Providencia stuartii): 16 to 64 µg/mL
MIC (Klebsiella pneumoniae): 1 to 2 µg/mL
MIC (Citrobacter freundi): 2 to 4 µg/mL
